The results in this text go back to patent US9340590B2 (priority 2011, dated 2016).

Positions of bridges follow the written chain, without caps; N, C: chain ends. Residues, ends and D or L forms follow the SMILES beside them.

Assay in all cases: cell-based
The target of one experiment is hNav1.7 (Homo sapiens, UniProt Q15858). In kind it is cell-based. The settings on record: IonWorks Quattro; clamped to −110 mV, depolarized to −10 mV, 5 min after compound; n=2; read-out: IWQ Use Nav1.7.
The target of the next experiment is hNav1.5 (Homo sapiens, UniProt Q14524). The settings on record: IonWorks Quattro; clamped to −110 mV, depolarized to −10 mV, 5 min after compound; n=2; read-out: IWQ Use Nav1.5. A general note: In patch-clamp work, channel activity is measured electrically.
The next experiment deals with hNav1.3 (Homo sapiens, UniProt Q9NY46). The settings on record: IonWorks Quattro; clamped to −110 mV, depolarized to −10 mV, 5 min after compound; n=2; read-out: IWQ Use Nav1.3.
Chain of hNav1.3 (Q9NY46 whole entry, looked up): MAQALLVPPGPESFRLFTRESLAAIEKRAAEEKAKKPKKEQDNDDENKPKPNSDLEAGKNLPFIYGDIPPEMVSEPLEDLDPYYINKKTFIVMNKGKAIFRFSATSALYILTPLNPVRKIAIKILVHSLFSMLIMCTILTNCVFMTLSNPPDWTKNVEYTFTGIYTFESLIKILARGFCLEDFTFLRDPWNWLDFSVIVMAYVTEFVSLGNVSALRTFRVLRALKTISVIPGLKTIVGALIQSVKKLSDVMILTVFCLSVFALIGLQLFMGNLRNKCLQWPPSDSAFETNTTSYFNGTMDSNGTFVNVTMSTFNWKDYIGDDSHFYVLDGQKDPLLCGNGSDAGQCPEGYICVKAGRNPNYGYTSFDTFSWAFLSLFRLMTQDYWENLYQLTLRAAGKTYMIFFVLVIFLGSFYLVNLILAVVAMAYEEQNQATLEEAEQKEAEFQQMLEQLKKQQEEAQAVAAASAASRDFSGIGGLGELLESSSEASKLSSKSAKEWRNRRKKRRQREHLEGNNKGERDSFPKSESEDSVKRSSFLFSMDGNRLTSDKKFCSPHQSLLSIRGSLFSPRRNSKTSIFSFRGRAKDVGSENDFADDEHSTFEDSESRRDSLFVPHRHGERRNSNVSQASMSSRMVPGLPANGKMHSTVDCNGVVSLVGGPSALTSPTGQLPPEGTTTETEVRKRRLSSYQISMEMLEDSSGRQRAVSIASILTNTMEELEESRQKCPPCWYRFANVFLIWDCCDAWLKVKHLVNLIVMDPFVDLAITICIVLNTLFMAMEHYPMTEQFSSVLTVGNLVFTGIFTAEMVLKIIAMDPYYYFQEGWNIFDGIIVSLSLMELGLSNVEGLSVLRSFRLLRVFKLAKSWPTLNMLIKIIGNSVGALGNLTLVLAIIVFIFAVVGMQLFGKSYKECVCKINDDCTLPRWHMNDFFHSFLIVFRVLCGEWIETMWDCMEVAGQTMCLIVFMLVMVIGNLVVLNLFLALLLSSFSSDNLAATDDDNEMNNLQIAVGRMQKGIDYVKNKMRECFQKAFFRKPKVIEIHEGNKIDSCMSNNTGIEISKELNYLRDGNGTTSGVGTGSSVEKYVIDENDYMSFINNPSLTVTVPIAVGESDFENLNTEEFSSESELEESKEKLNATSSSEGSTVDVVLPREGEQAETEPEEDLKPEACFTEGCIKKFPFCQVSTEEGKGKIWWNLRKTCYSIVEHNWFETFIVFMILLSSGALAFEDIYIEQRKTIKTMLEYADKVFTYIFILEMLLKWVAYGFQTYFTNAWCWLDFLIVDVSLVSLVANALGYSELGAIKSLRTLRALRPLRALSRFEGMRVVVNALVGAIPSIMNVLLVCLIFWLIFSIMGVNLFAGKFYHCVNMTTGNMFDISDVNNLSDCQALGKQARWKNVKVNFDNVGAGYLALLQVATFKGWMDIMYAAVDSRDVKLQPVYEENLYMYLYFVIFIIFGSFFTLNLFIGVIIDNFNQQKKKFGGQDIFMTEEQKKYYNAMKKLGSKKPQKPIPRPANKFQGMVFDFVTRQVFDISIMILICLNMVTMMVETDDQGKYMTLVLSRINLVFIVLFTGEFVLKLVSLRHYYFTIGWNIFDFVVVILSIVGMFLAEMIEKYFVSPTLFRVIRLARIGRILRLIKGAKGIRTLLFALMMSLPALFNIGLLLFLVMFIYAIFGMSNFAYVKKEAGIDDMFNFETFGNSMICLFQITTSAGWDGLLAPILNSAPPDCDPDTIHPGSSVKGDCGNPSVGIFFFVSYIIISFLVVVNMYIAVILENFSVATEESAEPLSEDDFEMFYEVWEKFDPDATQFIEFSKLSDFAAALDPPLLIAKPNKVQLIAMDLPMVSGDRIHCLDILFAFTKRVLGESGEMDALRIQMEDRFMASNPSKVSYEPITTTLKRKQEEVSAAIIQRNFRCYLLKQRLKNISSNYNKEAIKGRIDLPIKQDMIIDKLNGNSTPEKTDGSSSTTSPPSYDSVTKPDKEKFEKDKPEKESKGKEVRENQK

Chain of hNav1.7 (Q15858 whole entry, looked up): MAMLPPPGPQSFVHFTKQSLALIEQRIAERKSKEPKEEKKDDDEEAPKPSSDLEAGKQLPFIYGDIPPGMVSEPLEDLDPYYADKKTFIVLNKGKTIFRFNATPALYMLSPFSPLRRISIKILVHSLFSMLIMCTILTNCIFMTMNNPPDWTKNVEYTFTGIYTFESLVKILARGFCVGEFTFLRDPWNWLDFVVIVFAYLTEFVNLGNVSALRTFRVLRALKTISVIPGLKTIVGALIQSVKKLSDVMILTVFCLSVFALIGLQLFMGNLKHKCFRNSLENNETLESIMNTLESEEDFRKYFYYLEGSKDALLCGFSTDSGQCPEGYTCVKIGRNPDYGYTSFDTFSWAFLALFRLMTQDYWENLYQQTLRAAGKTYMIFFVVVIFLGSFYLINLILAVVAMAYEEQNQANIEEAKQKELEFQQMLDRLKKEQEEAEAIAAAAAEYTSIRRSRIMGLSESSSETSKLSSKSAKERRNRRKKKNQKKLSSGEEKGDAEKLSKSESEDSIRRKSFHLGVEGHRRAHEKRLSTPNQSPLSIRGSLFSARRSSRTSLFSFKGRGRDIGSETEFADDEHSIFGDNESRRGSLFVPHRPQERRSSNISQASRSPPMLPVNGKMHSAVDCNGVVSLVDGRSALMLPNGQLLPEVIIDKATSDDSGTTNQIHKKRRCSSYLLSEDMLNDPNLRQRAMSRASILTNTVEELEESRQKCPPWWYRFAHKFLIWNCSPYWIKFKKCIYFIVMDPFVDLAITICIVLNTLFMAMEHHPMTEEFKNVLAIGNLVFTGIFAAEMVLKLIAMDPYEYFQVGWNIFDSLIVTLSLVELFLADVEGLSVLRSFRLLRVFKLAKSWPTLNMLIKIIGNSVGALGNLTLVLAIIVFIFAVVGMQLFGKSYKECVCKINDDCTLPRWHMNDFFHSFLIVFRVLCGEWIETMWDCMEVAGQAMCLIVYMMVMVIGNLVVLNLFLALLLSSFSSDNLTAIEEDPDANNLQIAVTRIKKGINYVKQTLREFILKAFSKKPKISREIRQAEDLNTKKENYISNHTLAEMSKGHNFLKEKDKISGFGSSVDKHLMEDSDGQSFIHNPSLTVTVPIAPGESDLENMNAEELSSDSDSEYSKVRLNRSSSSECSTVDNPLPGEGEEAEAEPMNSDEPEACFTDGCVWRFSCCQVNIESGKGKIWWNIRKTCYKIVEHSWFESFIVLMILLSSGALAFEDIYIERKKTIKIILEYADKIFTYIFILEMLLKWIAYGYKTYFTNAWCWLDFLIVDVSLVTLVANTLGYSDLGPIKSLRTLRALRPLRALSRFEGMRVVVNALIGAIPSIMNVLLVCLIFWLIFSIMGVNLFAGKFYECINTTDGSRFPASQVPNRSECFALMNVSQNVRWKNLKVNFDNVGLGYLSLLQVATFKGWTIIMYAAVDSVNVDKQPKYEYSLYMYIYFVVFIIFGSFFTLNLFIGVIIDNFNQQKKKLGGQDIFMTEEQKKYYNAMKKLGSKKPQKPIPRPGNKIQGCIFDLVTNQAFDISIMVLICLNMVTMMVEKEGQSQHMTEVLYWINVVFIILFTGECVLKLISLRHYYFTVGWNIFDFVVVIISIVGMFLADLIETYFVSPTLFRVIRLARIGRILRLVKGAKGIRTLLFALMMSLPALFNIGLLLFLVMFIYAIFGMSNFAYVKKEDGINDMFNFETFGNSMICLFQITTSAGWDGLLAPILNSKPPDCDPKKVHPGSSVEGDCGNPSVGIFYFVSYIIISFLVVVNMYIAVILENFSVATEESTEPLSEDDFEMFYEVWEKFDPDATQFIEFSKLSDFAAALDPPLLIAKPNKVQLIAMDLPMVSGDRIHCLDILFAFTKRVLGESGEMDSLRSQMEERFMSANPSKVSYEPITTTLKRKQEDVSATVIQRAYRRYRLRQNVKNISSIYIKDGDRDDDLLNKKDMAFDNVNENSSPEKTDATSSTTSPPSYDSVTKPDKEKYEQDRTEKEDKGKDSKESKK

Regarding `CC[C@H](C)[C@@H]1NC(=O)[C@@H]2CSSC[C@@H]3NC(=O)[C@H](C(C)C)NC(=O)[C@H](CC(C)C)NC(=O)[C@H](CC(N)=O)NC(=O)[C@@H]4CCCN4C(=O)[C@H](CCCNC(=N)N)NC(=O)[C@H](CSSC[C@H](NC(=O)[C@@H](N)CC(=O)O)C(=O)N[C@@H](CC(C)C)C(=O)NCC(=O)N[C@@H](CCSC)C(=O)N[C@@H](CCSC)C(=O)N[C@@H](CCCNC(=N)N)C(=O)N[C@@H](CCCCN)C(=O)N2)NC(=O)[C@H](CSSC[C@@H](C(=O)N[C@@H](CCCCN)C(=O)N[C@@H](Cc2ccc(O)cc2)C(=O)N[C@H](C(=O)N[C@@H](Cc2ccccc2)C(N)=O)C(C)C)NC(=O)[C@H](Cc2c[nH]c4ccccc24)NC(=O)[C@H](CCCCN)NC(=O)[C@H](Cc2cnc[nH]2)NC(=O)[C@H]([C@@H](C)O)NC(=O)[C@H](CCCNC(=N)N)NC(=O)[C@H](CO)NC3=O)NC(=O)[C@H](CCCCN)NC(=O)[C@H](CC(=O)O)NC(=O)[C@H](CC(N)=O)NC(=O)[C@H](CC(=O)O)NC(=O)[C@@H]2CCCN2C1=O` [SEQ ID NO: 268] (H-DCLGMMRKCIPDNDKCCRPNLVCSRTHKWCKYVF-NH2; disulfide 2-17, 9-23, 16-30), the IC50 on hNav1.7 was 100 nM; at hNav1.5 it was 12800 nM; on hNav1.3, 240 nM.

For the molecule `CC[C@H](C)[C@@H]1NC(=O)[C@@H]2CSSC[C@@H]3NC(=O)[C@H](C(C)C)NC(=O)[C@H](CC(C)C)NC(=O)[C@H](CC(N)=O)NC(=O)[C@@H]4CCCN4C(=O)[C@H](CCCNC(=N)N)NC(=O)[C@H](CSSC[C@H](NC(=O)[C@@H](N)CC(=O)O)C(=O)N[C@@H](CC(C)C)C(=O)NCC(=O)N4CCC[C@H]4C(=O)N[C@@H](CCSC)C(=O)N[C@@H](CCCNC(=N)N)C(=O)N[C@@H](CCCCN)C(=O)N2)NC(=O)[C@H](CSSC[C@@H](C(=O)N[C@@H](CCCCN)C(=O)N[C@@H](Cc2ccc(O)cc2)C(=O)N[C@H](C(=O)N[C@@H](Cc2ccccc2)C(N)=O)C(C)C)NC(=O)[C@H](Cc2c[nH]c4ccccc24)NC(=O)[C@H](CCCCN)NC(=O)[C@H](Cc2c[nH]cn2)NC(=O)[C@H]([C@@H](C)O)NC(=O)[C@H](CCCNC(=N)N)NC(=O)[C@H](CO)NC3=O)NC(=O)[C@H](CCCCN)NC(=O)[C@H](CC(=O)O)NC(=O)[C@H](CC(N)=O)NC(=O)[C@H](CC(=O)O)NC(=O)[C@@H]2CCCN2C1=O` [SEQ ID NO: 269] (H-DCLGPMRKCIPDNDKCCRPNLVCSRTHKWCKYVF-NH2; disulfide 2-17, 9-23, 16-30), the IC50 was determined as 1170 nM on hNav1.7, 6610 nM on hNav1.5 and 1730 nM on hNav1.3.

Regarding `CC[C@H](C)[C@@H]1NC(=O)[C@@H]2CSSC[C@@H]3NC(=O)[C@H](C(C)C)NC(=O)[C@H](CC(C)C)NC(=O)[C@H](CC(N)=O)NC(=O)[C@@H]4CCCN4C(=O)[C@H](CCCNC(=N)N)NC(=O)[C@H](CSSC[C@H](NC(=O)[C@@H](N)CC(=O)O)C(=O)N[C@@H](CC(C)C)C(=O)NCC(=O)N[C@@H]([C@@H](C)O)C(=O)N[C@@H](CCSC)C(=O)N[C@@H](CCCNC(=N)N)C(=O)N[C@@H](CCCCN)C(=O)N2)NC(=O)[C@H](CSSC[C@@H](C(=O)N[C@@H](CCCCN)C(=O)N[C@@H](Cc2ccc(O)cc2)C(=O)N[C@H](C(=O)N[C@@H](Cc2ccccc2)C(N)=O)C(C)C)NC(=O)[C@H](Cc2c[nH]c4ccccc24)NC(=O)[C@H](CCCCN)NC(=O)[C@H](Cc2c[nH]cn2)NC(=O)[C@H]([C@@H](C)O)NC(=O)[C@H](CCCNC(=N)N)NC(=O)[C@H](CO)NC3=O)NC(=O)[C@H](CCCCN)NC(=O)[C@H](CC(=O)O)NC(=O)[C@H](CC(N)=O)NC(=O)[C@H](CC(=O)O)NC(=O)[C@@H]2CCCN2C1=O` [SEQ ID NO: 270] (H-DCLGTMRKCIPDNDKCCRPNLVCSRTHKWCKYVF-NH2; disulfide 2-17, 9-23, 16-30), the figures for the IC50 on hNav1.7, at hNav1.5 and on hNav1.3 were 1220 nM, 15200 nM and 2190 nM, respectively.

As to `CC[C@H](C)[C@@H]1NC(=O)[C@@H]2CSSC[C@@H]3NC(=O)[C@H](C(C)C)NC(=O)[C@H](CC(C)C)NC(=O)[C@H](CC(N)=O)NC(=O)[C@@H]4CCCN4C(=O)[C@H](CCCNC(=N)N)NC(=O)[C@H](CSSC[C@H](NC(=O)[C@@H](N)CC(=O)O)C(=O)N[C@@H](CC(C)C)C(=O)NCC(=O)N[C@@H](Cc4ccc(O)cc4)C(=O)N[C@@H](CCSC)C(=O)N[C@@H](CCCNC(=N)N)C(=O)N[C@@H](CCCCN)C(=O)N2)NC(=O)[C@H](CSSC[C@@H](C(=O)N[C@@H](CCCCN)C(=O)N[C@@H](Cc2ccc(O)cc2)C(=O)N[C@H](C(=O)N[C@@H](Cc2ccccc2)C(N)=O)C(C)C)NC(=O)[C@H](Cc2c[nH]c4ccccc24)NC(=O)[C@H](CCCCN)NC(=O)[C@H](Cc2c[nH]cn2)NC(=O)[C@H]([C@@H](C)O)NC(=O)[C@H](CCCNC(=N)N)NC(=O)[C@H](CO)NC3=O)NC(=O)[C@H](CCCCN)NC(=O)[C@H](CC(=O)O)NC(=O)[C@H](CC(N)=O)NC(=O)[C@H](CC(=O)O)NC(=O)[C@@H]2CCCN2C1=O` [SEQ ID NO: 271] (H-DCLGYMRKCIPDNDKCCRPNLVCSRTHKWCKYVF-NH2; disulfide 2-17, 9-23, 16-30), the values for the IC50 on hNav1.7, on hNav1.5 and at hNav1.3 were 1430 nM, 15600 nM and 1640 nM, respectively.

For `CC[C@H](C)[C@@H]1NC(=O)[C@@H]2CSSC[C@@H]3NC(=O)[C@H](C(C)C)NC(=O)[C@H](CC(C)C)NC(=O)[C@H](CC(N)=O)NC(=O)[C@@H]4CCCN4C(=O)[C@H](CCCNC(=N)N)NC(=O)[C@H](CSSC[C@H](NC(=O)[C@@H](N)CC(=O)O)C(=O)N[C@@H](CC(C)C)C(=O)NCC(=O)N(C)[C@@H](Cc4c[nH]c5ccccc45)C(=O)N[C@@H](CCSC)C(=O)N[C@@H](CCCNC(=N)N)C(=O)N[C@@H](CCCCN)C(=O)N2)NC(=O)[C@H](CSSC[C@@H](C(=O)N[C@@H](CCCCN)C(=O)N[C@@H](Cc2ccc(O)cc2)C(=O)N[C@H](C(=O)N[C@@H](Cc2ccccc2)C(N)=O)C(C)C)NC(=O)[C@H](Cc2c[nH]c4ccccc24)NC(=O)[C@H](CCCCN)NC(=O)[C@H](Cc2c[nH]cn2)NC(=O)[C@H]([C@@H](C)O)NC(=O)[C@H](CCCNC(=N)N)NC(=O)[C@H](CO)NC3=O)NC(=O)[C@H](CCCCN)NC(=O)[C@H](CC(=O)O)NC(=O)[C@H](CC(N)=O)NC(=O)[C@H](CC(=O)O)NC(=O)[C@@H]2CCCN2C1=O` [SEQ ID NO: 274], the results for the IC50 on hNav1.7, on hNav1.5 and at hNav1.3 were 190 nM, over 5000 nM and 150 nM, respectively.

Regarding `CC[C@H](C)[C@@H]1NC(=O)[C@@H]2CSSC[C@@H]3NC(=O)[C@H](C(C)C)NC(=O)[C@H](CC(C)C)NC(=O)[C@H](CC(N)=O)NC(=O)[C@@H]4CCCN4C(=O)[C@H](CCCNC(=N)N)NC(=O)[C@H](CSSC[C@H](NC(=O)[C@@H](N)CC(=O)O)C(=O)N[C@@H](CC(C)C)C(=O)NCC(=O)N[C@@H](c4ccccc4)C(=O)N[C@@H](CCSC)C(=O)N[C@@H](CCCNC(=N)N)C(=O)N[C@@H](CCCCN)C(=O)N2)NC(=O)[C@H](CSSC[C@@H](C(=O)N[C@@H](CCCCN)C(=O)N[C@@H](Cc2ccc(O)cc2)C(=O)N[C@H](C(=O)N[C@@H](Cc2ccccc2)C(N)=O)C(C)C)NC(=O)[C@H](Cc2c[nH]c4ccccc24)NC(=O)[C@H](CCCCN)NC(=O)[C@H](Cc2c[nH]cn2)NC(=O)[C@H]([C@@H](C)O)NC(=O)[C@H](CCCNC(=N)N)NC(=O)[C@H](CO)NC3=O)NC(=O)[C@H](CCCCN)NC(=O)[C@H](CC(=O)O)NC(=O)[C@H](CC(N)=O)NC(=O)[C@H](CC(=O)O)NC(=O)[C@@H]2CCCN2C1=O` [SEQ ID NO: 275], the values for the IC50 on hNav1.7, on hNav1.5 and at hNav1.3 were 90 nM, over 5000 nM and 170 nM, respectively.

In the case of `CC[C@H](C)[C@@H]1NC(=O)[C@@H]2CSSC[C@@H]3NC(=O)[C@H](C(C)C)NC(=O)[C@H](CC(C)C)NC(=O)[C@H](CC(N)=O)NC(=O)[C@@H]4CCCN4C(=O)[C@H](CCCNC(=N)N)NC(=O)[C@H](CSSC[C@H](NC(=O)[C@@H](N)CC(=O)O)C(=O)N[C@@H](CC(C)C)C(=O)NCC(=O)N[C@@H](Cc4ccc(C(=O)O)cc4)C(=O)N[C@@H](CCSC)C(=O)N[C@@H](CCCNC(=N)N)C(=O)N[C@@H](CCCCN)C(=O)N2)NC(=O)[C@H](CSSC[C@@H](C(=O)N[C@@H](CCCCN)C(=O)N[C@@H](Cc2ccc(O)cc2)C(=O)N[C@H](C(=O)N[C@@H](Cc2ccccc2)C(N)=O)C(C)C)NC(=O)[C@H](Cc2c[nH]c4ccccc24)NC(=O)[C@H](CCCCN)NC(=O)[C@H](Cc2c[nH]cn2)NC(=O)[C@H]([C@@H](C)O)NC(=O)[C@H](CCCNC(=N)N)NC(=O)[C@H](CO)NC3=O)NC(=O)[C@H](CCCCN)NC(=O)[C@H](CC(=O)O)NC(=O)[C@H](CC(N)=O)NC(=O)[C@H](CC(=O)O)NC(=O)[C@@H]2CCCN2C1=O` [SEQ ID NO: 276], the IC50 at hNav1.7 was determined as 16000 nM; on hNav1.5, 8120 nM; at hNav1.3, 5420 nM.

Consider `CC[C@H](C)[C@@H]1NC(=O)[C@@H]2CSSC[C@@H]3NC(=O)[C@H](C(C)C)NC(=O)[C@H](CC(C)C)NC(=O)[C@H](CC(N)=O)NC(=O)[C@@H]4CCCN4C(=O)[C@H](CCCNC(=N)N)NC(=O)[C@H](CSSC[C@H](NC(=O)[C@@H](N)CC(=O)O)C(=O)N[C@@H](CC(C)C)C(=O)NCC(=O)N[C@@H](Cc4ccccn4)C(=O)N[C@@H](CCSC)C(=O)N[C@@H](CCCNC(=N)N)C(=O)N[C@@H](CCCCN)C(=O)N2)NC(=O)[C@H](CSSC[C@@H](C(=O)N[C@@H](CCCCN)C(=O)N[C@@H](Cc2ccc(O)cc2)C(=O)N[C@H](C(=O)N[C@@H](Cc2ccccc2)C(N)=O)C(C)C)NC(=O)[C@H](Cc2c[nH]c4ccccc24)NC(=O)[C@H](CCCCN)NC(=O)[C@H](Cc2c[nH]cn2)NC(=O)[C@H]([C@@H](C)O)NC(=O)[C@H](CCCNC(=N)N)NC(=O)[C@H](CO)NC3=O)NC(=O)[C@H](CCCCN)NC(=O)[C@H](CC(=O)O)NC(=O)[C@H](CC(N)=O)NC(=O)[C@H](CC(=O)O)NC(=O)[C@@H]2CCCN2C1=O` [SEQ ID NO: 277], for which the IC50 turned out to be 2070 nM at hNav1.7, 9250 nM at hNav1.5 and 4580 nM at hNav1.3.
